Read-outs that look alike come from different tables or passages of the source.
Assays:
human CYP2D6 = human CYP2D6 (Homo sapiens, UniProt P10635)
CYP3A4 = CYP3A4 (Homo sapiens, UniProt P08684)
human CYP2C19 [1] = molecular target: T1, human CYP2C19 (Homo sapiens, UniProt P33261)
human CYP1A2 [2] = molecular target: T2, human CYP1A2 (Homo sapiens, UniProt P05177)
T2 sequence (P05177 1-516): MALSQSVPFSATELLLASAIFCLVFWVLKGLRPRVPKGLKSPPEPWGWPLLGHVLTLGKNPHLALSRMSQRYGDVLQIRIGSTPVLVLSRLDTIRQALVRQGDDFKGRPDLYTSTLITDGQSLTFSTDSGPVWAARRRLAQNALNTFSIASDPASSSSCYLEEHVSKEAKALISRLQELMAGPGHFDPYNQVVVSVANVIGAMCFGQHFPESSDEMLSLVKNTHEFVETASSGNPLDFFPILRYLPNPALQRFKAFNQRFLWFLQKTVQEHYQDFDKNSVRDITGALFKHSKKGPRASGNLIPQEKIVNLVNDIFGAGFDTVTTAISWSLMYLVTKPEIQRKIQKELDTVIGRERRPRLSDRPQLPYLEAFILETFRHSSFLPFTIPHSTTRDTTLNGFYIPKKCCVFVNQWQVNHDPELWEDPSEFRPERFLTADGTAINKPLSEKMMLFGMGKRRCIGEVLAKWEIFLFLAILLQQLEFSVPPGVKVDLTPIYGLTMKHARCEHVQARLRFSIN

human CYP2C9 [3] = molecular target: T3, human CYP2C9 (Homo sapiens, UniProt P11712)
T3 sequence (P11712 whole entry): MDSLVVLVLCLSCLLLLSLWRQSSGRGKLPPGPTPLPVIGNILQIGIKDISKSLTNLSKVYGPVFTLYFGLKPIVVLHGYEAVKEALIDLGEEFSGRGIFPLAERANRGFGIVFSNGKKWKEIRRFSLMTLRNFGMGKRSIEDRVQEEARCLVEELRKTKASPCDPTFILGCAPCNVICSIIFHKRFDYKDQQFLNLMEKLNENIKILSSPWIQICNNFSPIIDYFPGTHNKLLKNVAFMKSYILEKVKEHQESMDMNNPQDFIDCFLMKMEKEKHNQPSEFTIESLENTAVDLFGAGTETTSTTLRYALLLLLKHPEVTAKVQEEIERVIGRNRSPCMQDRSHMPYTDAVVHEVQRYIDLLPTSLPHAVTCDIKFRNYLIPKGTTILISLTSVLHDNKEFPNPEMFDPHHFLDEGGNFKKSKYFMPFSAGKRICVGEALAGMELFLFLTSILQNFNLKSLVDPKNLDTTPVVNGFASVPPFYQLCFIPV

human CYP2C19 [4] = molecular target: T1, human CYP2C19; test: biochemical
human CYP1A2 [5] = molecular target: T2, human CYP1A2; test: biochemical
human CYP2C9 [6] = molecular target: T3, human CYP2C9; test: biochemical
[7] = CYP1A2 AC50 (half-maximal activity concentration)
[8] = CYP2C19 AC50 (half-maximal activity concentration)
[9] = CYP2C9 AC50 (half-maximal activity concentration)

Sequence of CYP3A4 (P08684 whole entry): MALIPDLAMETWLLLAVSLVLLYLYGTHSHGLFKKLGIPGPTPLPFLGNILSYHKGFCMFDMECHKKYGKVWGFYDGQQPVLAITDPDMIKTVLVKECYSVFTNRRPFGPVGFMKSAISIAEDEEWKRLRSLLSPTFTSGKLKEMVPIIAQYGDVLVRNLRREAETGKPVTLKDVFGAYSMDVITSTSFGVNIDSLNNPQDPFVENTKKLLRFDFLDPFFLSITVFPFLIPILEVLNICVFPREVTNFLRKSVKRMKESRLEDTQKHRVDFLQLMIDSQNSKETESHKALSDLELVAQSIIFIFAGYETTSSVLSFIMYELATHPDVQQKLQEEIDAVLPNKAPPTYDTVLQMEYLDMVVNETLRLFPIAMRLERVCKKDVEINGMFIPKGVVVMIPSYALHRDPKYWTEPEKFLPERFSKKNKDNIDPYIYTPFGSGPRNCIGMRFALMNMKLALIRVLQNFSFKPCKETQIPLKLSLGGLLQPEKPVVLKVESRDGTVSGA
T1 sequence (P33261 whole entry): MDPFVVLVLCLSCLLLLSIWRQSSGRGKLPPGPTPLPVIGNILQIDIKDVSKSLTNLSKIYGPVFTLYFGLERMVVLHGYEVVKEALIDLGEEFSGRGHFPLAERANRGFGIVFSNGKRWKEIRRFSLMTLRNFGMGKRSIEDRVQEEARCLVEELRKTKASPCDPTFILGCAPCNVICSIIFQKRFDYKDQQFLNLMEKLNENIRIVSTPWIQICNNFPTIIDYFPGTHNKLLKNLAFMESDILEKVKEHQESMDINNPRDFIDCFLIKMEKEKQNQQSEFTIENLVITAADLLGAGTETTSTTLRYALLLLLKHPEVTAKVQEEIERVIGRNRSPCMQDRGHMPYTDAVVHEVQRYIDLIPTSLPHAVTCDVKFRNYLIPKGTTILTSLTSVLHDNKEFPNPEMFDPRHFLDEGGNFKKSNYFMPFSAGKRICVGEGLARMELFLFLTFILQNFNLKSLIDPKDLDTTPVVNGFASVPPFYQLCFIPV
Sequence of human CYP2D6 (P10635 whole entry): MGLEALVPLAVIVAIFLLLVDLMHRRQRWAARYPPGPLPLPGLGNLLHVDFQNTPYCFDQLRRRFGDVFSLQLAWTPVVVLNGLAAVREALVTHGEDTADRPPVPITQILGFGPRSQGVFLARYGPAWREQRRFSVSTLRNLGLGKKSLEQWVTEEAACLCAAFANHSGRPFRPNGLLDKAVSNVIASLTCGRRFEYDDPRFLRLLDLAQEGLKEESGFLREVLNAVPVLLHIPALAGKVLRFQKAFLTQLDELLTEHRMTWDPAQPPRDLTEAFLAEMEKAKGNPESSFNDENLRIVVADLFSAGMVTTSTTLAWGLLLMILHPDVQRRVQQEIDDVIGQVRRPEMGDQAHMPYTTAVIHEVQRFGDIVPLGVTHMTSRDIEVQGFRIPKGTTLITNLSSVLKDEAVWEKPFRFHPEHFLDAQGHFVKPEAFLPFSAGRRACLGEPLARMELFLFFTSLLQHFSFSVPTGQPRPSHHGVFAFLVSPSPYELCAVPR

SMILES	CYP2D6 AC50 (half-maximal activity concentration) (human CYP2D6)	AC50 (CYP3A4) [µM]	AC50 (human CYP2C19 [1]) [µM]	AC50 (human CYP1A2 [2]) [µM]	AC50 (human CYP2C9 [3]) [µM]	CYP2C19 AC50 (half-maximal activity concentration) (human CYP2C19 [1])	other results
CC(C)(C)C(=O)C=Cc1ccc(Cl)cc1	Inactive	20	6.98	21.2	54	–	–
CC(=O)c1cc(C(C)(C)C)cc2c1CCC2(C)C	Inactive	10.5	–	34.4	27.6	Inconclusive	–
Cl.O.c1cnc2c(c1)ccc1cccnc12	–	38.5	8.94	10.6	4.59	–	AC50 (human CYP2D6): 38.5 µM
CC(C)(C)C1=CC(=O)C(C(C)(C)C)=CC1=O	Inconclusive inhibitor	6.47	7.8	16.1	20.8	–	–
O=S1(=O)CC(Cl)(Cl)C(Cl)(Cl)C1	–	30.8	60.4	31.2	27.5	–	AC50 (human CYP2D6): 48.8 µM
CC(C)(c1ccc(Oc2ccc3c(c2)C(=O)OC3=O)cc1)c1ccc(Oc2ccc3c(c2)C(=O)OC3=O)cc1	–	23.4	–	63.2	–	Inconclusive inhibitor	AC50 (human CYP2D6): 37.9 µM; CYP2C9 AC50 (half-maximal activity concentration) (human CYP2C9 [3]): Inconclusive inhibitor
Cl.Nc1c2ccccc2nc2ccccc12.O	–	–	–	2.13	28.8	Inconclusive activator	AC50 (human CYP2D6): 12.9 µM; CYP3A4 AC50 (half-maximal activity concentration) (CYP3A4): Inactive
CCCOC(=O)c1c(Cl)c(Cl)c(Cl)c(Cl)c1C(=O)OCCC	Inconclusive inhibitor	2.63	12.5	1.72	20.1	–	–
CCOC(=O)CC(=O)Cc1cc(F)c(Cl)nc1Cl	Inactive	49.1	–	65.1	46.3	Inconclusive inhibitor	–
CCOC(=O)N1CCC(n2c(=O)[nH]c3cc(Cl)ccc32)CC1	Inactive	6.72	16.6	22.6	9.24	–	–
C=C(C)C(=O)OCCOc1ccccc1	Inactive	19.8	28.6	24.5	38.6	–	–
C=C(C)C(=O)OCC[N+](C)(C)C.[Cl-]	Inactive	23.4	–	10.5	–	Inactive	CYP2C9 AC50 (half-maximal activity concentration) (human CYP2C9 [3]): Inactive
O=[N+]([O-])c1cccc2cccc([N+](=O)[O-])c12 [1,8-Dinitronaphthalene]	Inconclusive inhibitor	–	–	–	–	–	CYP3A4 AC50 (half-maximal activity concentration) (CYP3A4): Inconclusive inhibitor
Cc1cc(O)c(Cl)c(C)c1Cl [2,4-Dichloro-3,5-dimethylphenol]	Inactive	–	–	–	–	–	AC50 (human CYP2C19 [4]): 71.9 µM; AC50 (human CYP1A2 [5]): 14.4 µM; AC50 (human CYP2C9 [6]): 9.3 µM
Brc1ccccc1-c1ccccc1 [2-Bromobiphenyl]	–	–	–	–	–	–	AC50 (human CYP1A2 [5]; [7]): 17 µM
O=S(=O)(c1ccc(O)cc1)c1ccc(O)cc1 [4,4'-Sulfonyldiphenol]	Inactive	–	–	–	–	–	CYP3A4 AC50 (half-maximal activity concentration) (CYP3A4): Inactive; AC50 (human CYP2C19 [4]; [8]): 16.4 µM; CYP1A2 AC50 (half-maximal activity concentration) (human CYP1A2 [2]): Inconclusive inhibitor; AC50 (human CYP2C9 [6]; [9]): 1.34 µM
CC(=O)c1ccc(O)cc1 [4-Hydroxyacetophenone]	Inactive	–	–	–	–	Inactive	CYP3A4 AC50 (half-maximal activity concentration) (CYP3A4): Inactive; CYP1A2 AC50 (half-maximal activity concentration) (human CYP1A2 [2]): Inconclusive inhibitor; AC50 (human CYP2C9 [6]): 36.2 µM
CCc1oc2ccccc2c1C(=O)c1cc(Br)c(O)c(Br)c1 [Benzbromarone]	–	–	–	–	–	–	AC50 (human CYP1A2 [5]; [7]): 28.9 µM
O=C(c1ccccc1)c1ccccc1 [Benzophenone]	–	–	–	–	–	–	AC50 (human CYP1A2 [5]; [7]): 13.7 µM; AC50 (human CYP2C9 [6]; [9]): 28.4 µM
O=C(OCc1ccccc1)c1ccccc1 [Benzyl benzoate]	–	–	–	–	–	–	AC50 (human CYP2C19 [4]; [8]): 21.3 µM; AC50 (human CYP1A2 [5]; [7]): 14.9 µM; AC50 (human CYP2C9 [6]; [9]): 27.7 µM
NS(=O)(=O)c1cc2c(cc1Cl)CN(C1CCCCC1)C2=O [Chlorexolone]	Inactive	–	–	–	–	Inconclusive activator	CYP3A4 AC50 (half-maximal activity concentration) (CYP3A4): Inactive; CYP1A2 AC50 (half-maximal activity concentration) (human CYP1A2 [2]): Inactive; AC50 (human CYP2C9 [6]; [9]): 14.4 µM
O=C(Nc1ccc(Cl)c(Cl)c1)C1CC1 [Cypromid]	–	–	–	–	–	–	IC50 (human CYP2C19 [4]; CYP2C19 IC50 (half-maximal inhibitory concentration)): 12.1 µM; IC50 (human CYP1A2 [5]; CYP1A2 IC50 (half-maximal inhibitory concentration)): 0.54 µM; CYP2C19 Efficacy (in parenthesis) (human CYP2C19 [1]; human): 12.07 ± 3.02 (-106 ± 21) %; CYP1A2 Efficacy (in parenthesis) (human CYP1A2 [2]; human): 0.54 ± 0.08 (-97 ± 6) %; IC50 (human CYP2C9 [6]; CYP2C9 IC50 (half-maximal inhibitory concentration)): 25.3 µM; CYP2C9 Efficacy (in parenthesis) (human CYP2C9 [3]; human): 25.27 ± 7.04 (-70 ± 11) %

— PMC12155096 (International Journal of Molecular Sciences, 2025)
